Test results from patent publication US20260224544A1, “Intranasal Formulations for Treating Obstructive Sleep Apnea” (Mosanna Therapeutics AG, priority 2023, published 2026).
Entries after “also recorded” stand apart in the source; their conditions may differ. Values belong to the compound of their own block, whether it stands above or below them.

Legend:
[1] = Compound 1 drug substance batch analysis (particle size distribution); assay type: physicochemical
Excerpt: The following compound 1 batches were manufactured (Table 31).

[2] = test system: male patients with Obstructive Sleep Apnea-Hypopnea Syndrome (OSAHS); experiment: Phase 2 clinical trial: change from baseline in Apnea Hypopnea Index (AHI) by overnight polysomnography; assay type: in vivo, human; conditions: single intranasal dose 18 mg
Experimental: (§1) This was a single intranasal dose, multi-center, randomized, placebo-controlled, double-blind, 2-way crossover study with two treatment periods in male patients with Obstructive Sleep Apnea-Hypopnea Syndrome (OSAHS).
(§2) After a screening phase of up to 21 days, the patients received single doses of 18 mg of compound 1 administered as 3 actuations of 100 μL of study drug into each nostril (9 mg/nostril) or matching placebo at bedtime in each study period. The single nasal doses were administered in a sitting position. There was a wash-out period of 2 days to 3 weeks between the two study periods. The duration of the study per patient ranged from 13 days to a maximum of 8 weeks.
Efficacy was assessed in a blinded fashion using overnight polysomnographic recordings (PSG) which were centrally read and interpreted. The central readers were blinded with regard to the treatment sequence the patients received and with regard to potential safety findings. Maintenance of Wakefulness Tests (MWT) and Stanford Sleepiness Scores (SSS) were also used for the assessment of Excessive Daytime Sleepiness (EDS), and plasma concentrations of compound 1 were assessed at baseline and approximately 10 hours after study drug administration (data not shown). […]
Patients were analyzed using the treatment they actually received at each period, irrespective of the treatment sequence they were randomized to. […]

[3] = test system: male patients with Obstructive Sleep Apnea-Hypopnea Syndrome (OSAHS); experiment: Phase 2 clinical trial: treatment emergent adverse events (TEAE); assay type: in vivo, human; conditions: single intranasal dose 18 mg, n = 38
Experimental: as §1, §2
The Safety population was defined as all randomized patients exposed to the study medication, regardless of the amount of treatment administered. Patients were analyzed using the treatment they actually received at each period.

[4] = test system: upper airway collapsibility; conditions: anesthetized pigs, administered topically to the upper airway; Wirth et al. 2013; cited from earlier work
[5] = Compound 1 drug substance stability (ICH storage conditions); assay type: physicochemical; conditions: long term conditions 25±2° C./60±5%, data not shown
Experimental: A stability study for compound 1 batch H (non-micronized, GMP) was initiated as per ICH storage conditions described in Table 36.
Results for 1 month of storage at 25±2° C./60±5% RH, 30±2° C./65±5% RH and at 40±2° C./75±5% RH are available to date.
A stability study for compound 1 batch L and M (micronized to d90<10 μm and d90<35 μm respectively, scheduled GMP sublots of compound 1 batch H) will be initiated as per ICH reference storage conditions described in Table 37 and Table 38.
To date, only limited data are available on compound 1 drug substance both non-micronized and micronized.

- Particle size distribution d10 ([1]; micronized drug substance): d10 0.80 μm
- Particle size distribution d50 ([1]; micronized drug substance): d50 2.3 μm
- Particle size distribution d90 ([1]; micronized drug substance): d90 5.9 μm
Compound: COc1ccc(CC(=O)NCc2ccccc2-c2ccccc2C(=O)NCCc2cccnc2)cc1 [Cmpd 1 batch L]

- Particle size distribution d10 ([1]; micronized drug substance): d10 0.96 μm
- Particle size distribution d50 ([1]; micronized drug substance): d50 4.14 μm
- Particle size distribution d90 ([1]; micronized drug substance): d90 8.85 μm
Compound: COc1ccc(CC(=O)NCc2ccccc2-c2ccccc2C(=O)NCCc2cccnc2)cc1 [Cmpd 1 batch E]

- D90 of drug substance ([1]; micronized drug substance): approximately 4.9 μm
- D90 of drug substance ([1]; non micronized batch sieved with a 32 μm mesh): approximately 28 μm
Compound: COc1ccc(CC(=O)NCc2ccccc2-c2ccccc2C(=O)NCCc2cccnc2)cc1 [Compound 1, 2′-{[2-(4-methoxy-phenyl)-acetylamino]-methyl}-biphenyl-2-carboxylic acid (2-pyridin-3-yl-ethyl)-amide]
- AHI (num/hr) LS mean difference, compound 1 versus placebo, change from baseline ([2]; ITT population): −3.78 num/hr
- primary efficacy outcome (reduction of AHI versus placebo) [2]: not statistically significant; also recorded: no significant improvement in obstructive sleep apnea
- All grade TEAEs: Cough, % [3]: (50.0%)
- All grade TEAEs: Eye Disorders, % [3]: (57.9%)
- All grade TEAEs: Increased tearing, % [3]: (52.6%)
- All grade TEAEs: Nasal discomfort, % [3]: (36.8%)
- All grade TEAEs: Respiratory, % [3]: (97.4%)
- All grade TEAEs: Rhinorrhea, % [3]: (18.4%)
- All grade TEAEs: Sneezing, % [3]: (84.2%)
- All grade TEAEs: Throat irritations, % [3]: (34.2%)
- inhibition of upper airway collapsibility [4]: dose-dependently inhibit upper airway collapsibility

- time for which stability was demonstrated ([5]; lots manufactured in 2004): up to 36 months
Compound: COc1ccc(CC(=O)NCc2ccccc2-c2ccccc2C(=O)NCCc2cccnc2)cc1 [listing 1 of 2 here]

- Particle size distribution d10 ([1]; micronized drug substance): d10 1.81 μm
- Particle size distribution d50 ([1]; micronized drug substance): d50 12.53 μm
- Particle size distribution d90 ([1]; micronized drug substance): d90 30.01 μm
Compound: COc1ccc(CC(=O)NCc2ccccc2-c2ccccc2C(=O)NCCc2cccnc2)cc1 [Cmpd 1 batch K]

- time for which stability was demonstrated ([5]; micronized, 2004 lot): up to 12 months
Compound: COc1ccc(CC(=O)NCc2ccccc2-c2ccccc2C(=O)NCCc2cccnc2)cc1 [listing 2 of 2 here]
